Test results as given in the NIST ThermoML archive (doi:10.1016/j.jct.2015.08.033).

Assay: mn = molality of the nth substance listed, in mol/kg
Conditions: 100 kPa, Liquid; for speed of sound: Frequency=3 MHz, Sing-around technique in a fixed-path interferometer; for mass density: Vibrating tube method

O=S(=O)([O-])C(F)(F)F.O=S(=O)([O-])C(F)(F)F.[Ca+2] [calcium trifluoromethanesulfonate] + CN(C)C=O
Conditions | mass density, 298.15 K [kg/m3] | mass density, 303.15 K [kg/m3] | mass density, 308.15 K [kg/m3] | mass density, 313.15 K [kg/m3] | mass density, 318.15 K [kg/m3] | speed of sound, 298.15 K [m/s] | speed of sound, 303.15 K [m/s] | speed of sound, 308.15 K [m/s] | speed of sound, 313.15 K [m/s] | speed of sound, 318.15 K [m/s]
m1 = 0.01106 | 946.239 | 941.472 | 936.692 | 931.892 | 927.09 | 1457.3 | 1438.1 | 1418.8 | 1399.6 | 1380.3
m1 = 0.01878 | 947.845 | 943.075 | 938.305 | 933.505 | 928.705 | 1457.4 | 1438.2 | 1418.9 | 1399.7 | 1380.6
m1 = 0.02772 | 949.696 | 944.925 | 940.169 | 935.363 | 930.568 | 1457.4 | 1438.3 | 1419 | 1399.9 | 1380.8
m1 = 0.03952 | 952.113 | 947.355 | 942.581 | 937.793 | 932.985 | 1457.4 | 1438.3 | 1419.2 | 1400.1 | 1381.1
m1 = 0.05628 | 955.509 | 950.747 | 945.976 | 941.193 | 936.398 | 1457.5 | 1438.3 | 1419.2 | 1400.2 | 1381.2
m1 = 0.06961 | 958.2 | 953.444 | 948.677 | 943.893 | 939.103 | 1457.3 | 1438.3 | 1419.3 | 1400.3 | 1381.4
m1 = 0.08918 | 962.098 | 957.344 | 952.579 | 947.802 | 943.015 | 1457.1 | 1438.2 | 1419.2 | 1400.3 | 1381.5
m1 = 0.1114 | 966.493 | 961.744 | 956.98 | 952.205 | 947.419 | 1456.8 | 1438 | 1419.1 | 1400.3 | 1381.6
m1 = 0.1344 | 971.012 | 966.262 | 961.501 | 956.728 | 951.947 | 1456.6 | 1437.8 | 1419 | 1400.3 | 1381.6
m1 = 0.1671 | 977.356 | 972.601 | 967.839 | 963.068 | 958.29 | 1456.4 | 1437.6 | 1418.8 | 1400.2 | 1381.6

O=S(=O)([O-])C(F)(F)F.O=S(=O)([O-])C(F)(F)F.[Sr+2] [strontium trifluoromethanesulfonate] + CC(=O)N(C)C
Conditions | mass density, 298.15 K [kg/m3] | mass density, 303.15 K [kg/m3] | mass density, 308.15 K [kg/m3] | mass density, 313.15 K [kg/m3] | mass density, 318.15 K [kg/m3] | speed of sound, 298.15 K [m/s] | speed of sound, 303.15 K [m/s] | speed of sound, 308.15 K [m/s] | speed of sound, 313.15 K [m/s] | speed of sound, 318.15 K [m/s]
m1 = 0.009611 | 938.686 | 934.078 | 929.46 | 924.833 | 920.199 | 1456.3 | 1436.5 | 1416.7 | 1397 | 1377.5
m1 = 0.01616 | 940.308 | 935.702 | 931.087 | 926.462 | 921.831 | 1456.5 | 1436.8 | 1417 | 1397.3 | 1377.8
m1 = 0.02452 | 942.361 | 937.757 | 933.142 | 928.518 | 923.888 | 1456.8 | 1437.1 | 1417.4 | 1397.8 | 1378.3
m1 = 0.0346 | 944.817 | 940.215 | 935.603 | 930.982 | 926.353 | 1456.9 | 1437.2 | 1417.5 | 1398 | 1378.6
m1 = 0.04877 | 948.237 | 943.637 | 939.026 | 934.407 | 929.78 | 1457.1 | 1437.5 | 1418 | 1398.6 | 1379.2
m1 = 0.06177 | 951.363 | 946.763 | 942.151 | 937.533 | 932.906 | 1457.3 | 1437.8 | 1418.3 | 1398.9 | 1379.7
m1 = 0.07813 | 955.261 | 950.663 | 946.052 | 941.432 | 936.806 | 1457.5 | 1438.1 | 1418.7 | 1399.3 | 1380.1
m1 = 0.09814 | 960.007 | 955.407 | 950.795 | 946.177 | 941.551 | 1457.7 | 1438.4 | 1419.1 | 1399.8 | 1380.7
m1 = 0.1176 | 964.581 | 959.98 | 955.367 | 950.748 | 946.121 | 1458 | 1438.8 | 1419.5 | 1400.3 | 1381.3
m1 = 0.1476 | 971.566 | 966.955 | 962.34 | 957.717 | 953.091 | 1458.3 | 1439 | 1419.8 | 1400.8 | 1381.8
